In BindingDB's records for doi:10.1016/j.bmc.2008.10.052 (Universidade Federal De Santa Maria, 2008):

target: Cruzipain (Trypanosoma cruzi, UniProt P25779); experiment: Inhibition of Trypanosoma cruzi C-terminal truncated cruzain expressed in DH5alpha Escherichia coli by well-microplate spectrophotometry
Sequence (P25779 whole entry, the tested form may be a part): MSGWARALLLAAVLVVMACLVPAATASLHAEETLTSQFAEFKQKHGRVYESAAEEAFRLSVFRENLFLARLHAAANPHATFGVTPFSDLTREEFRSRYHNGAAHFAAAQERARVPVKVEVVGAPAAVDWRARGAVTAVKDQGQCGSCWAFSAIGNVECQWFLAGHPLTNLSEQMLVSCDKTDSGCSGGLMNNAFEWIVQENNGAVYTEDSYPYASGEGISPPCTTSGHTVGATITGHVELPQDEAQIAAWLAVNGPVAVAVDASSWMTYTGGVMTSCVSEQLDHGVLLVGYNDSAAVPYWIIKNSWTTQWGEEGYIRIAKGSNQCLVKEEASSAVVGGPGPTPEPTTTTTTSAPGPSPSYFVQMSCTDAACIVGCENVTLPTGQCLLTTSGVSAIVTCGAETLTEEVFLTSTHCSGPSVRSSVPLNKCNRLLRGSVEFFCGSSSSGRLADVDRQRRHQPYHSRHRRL

SMILES	IC50 [µM]
FC(F)(F)c1ccnc(N=NCc2ccccc2)n1 [2-(N'-Benzylidenehydrazino)-4-trifluoromethylpyrimidine]	> 150
Cc1ccc(CN=Nc2nccc(C(F)(F)F)n2)cc1 [2-(N'-4-Methyl-benzylidenehydrazino)-4-trifluoromethyl-pyrimidine]	> 100
COc1ccccc1CN=Nc1nc(C)cc(C(F)(F)F)n1 [2-(N'-2-Methoxy-benzylidenehydrazino)-6-methyl-4-trifluoromethyl-pyri-midine]	> 150
COc1ccc(CN=Nc2nccc(C(F)(F)F)n2)cc1 [2-(N'-4-methoxy-benzylidenehydrazino)-4-trifluoromethyl-pyrimidine]	> 100
Cc1ccccc1CN=Nc1nccc(C(F)(F)F)n1 [2-(N'-2-Methyl-benzylidenehydrazino)-4-trifluoromethyl-pyrimidine]	> 100

Continued, values first:

IC50 [µM]	SMILES
> 100	Cc1cc(C(F)(F)F)nc(N=NCc2ccccc2C)n1 [2-(N'-2-Methyl-benzylidenehydrazino)-6-methyl-4-trifluoromethyl-pyrimidine]
100	Cc1cc(C(F)(F)F)nc(N=NCc2ccc(Cl)cc2)n1 [2-(N'-4-chloro-benzylidenehydrazino)-6-methyl-4-trifluoro-methyl-pyrimidine]
100	O=[N+]([O-])c1ccc(CN=Nc2nccc(C(F)(F)F)n2)cc1 [2-(N'-4-Nitro-benzylidenehydrazino)-4-trifluoromethylpyrimidine]
